In PMC8353826, “Celastrol exerts a neuroprotective effect by directly binding to HMGB1 protein in cerebral ischemia–reperfusion” (Journal of Neuroinflammation, 2021):

Assays:
[1] = biological target: T1, HMGB1 B box (Homo sapiens, UniProt P09429); assay: in-gel fluorescence labelling by probe, click TAMRA azide; type: binding; conditions: labelled compound; labelling in presence of IAA; PBS
T1 construct: B box domain, residues 90-175, N-terminal 6-His tag, modified pET-24d, E. coli BL21
T1 sequence (P09429 90-175): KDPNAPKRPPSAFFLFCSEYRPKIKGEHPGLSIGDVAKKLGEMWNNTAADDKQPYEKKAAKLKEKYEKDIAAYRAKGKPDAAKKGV

[2] = biological target: T2, HMGB1 (primary rat cortical neurons) (Rattus norvegicus, UniProt P63159); assay: probe pull-down, TMT LC-MS/MS and Western blot; type: cell-based; conditions: labelled compound; 4 μM cel-p, 4 h, living neurons, with or without OGD
T2 construct: endogenous full-length protein in living primary cortical neurons or their lysate
T2 sequence (P63159 2-215): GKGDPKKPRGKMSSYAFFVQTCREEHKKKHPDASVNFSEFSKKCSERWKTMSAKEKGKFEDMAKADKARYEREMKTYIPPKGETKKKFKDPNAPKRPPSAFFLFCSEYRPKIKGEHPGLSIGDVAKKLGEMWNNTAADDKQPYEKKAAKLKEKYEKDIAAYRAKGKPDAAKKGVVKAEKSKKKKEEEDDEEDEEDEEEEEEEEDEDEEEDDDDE

[3] = biological target: T3, HMGB1 A box (Homo sapiens, UniProt P09429); assay: in-gel fluorescence labelling by probe, click TAMRA azide; type: binding; conditions: labelled compound; labelling in presence of IAA; PBS
T3 construct: A box domain, residues 1-89, N-terminal 6-His tag, modified pET-24d, E. coli BL21
T3 sequence (P09429 1-89): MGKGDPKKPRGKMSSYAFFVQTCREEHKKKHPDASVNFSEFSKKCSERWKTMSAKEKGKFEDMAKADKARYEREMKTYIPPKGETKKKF

[4] = biological target: T1, HMGB1 B box; assay: gel-based competition with IAA-yne labelling, click TAMRA fluorescence; type: binding; conditions: covalent; blocks IAA-yne labelling of Cys; PBS
[5] = biological target: T4, recombinant human HMGB1 protein (full-length) (Homo sapiens, UniProt P09429); assay: as above; type: binding; conditions: covalent; Cys 106 of disulfide form or Cys 23, 45, 106 of fully reduced form, also other sites; PBS
T4 construct: full-length recombinant protein, commercial (Abcam); disulfide form or DTT-reduced
T4 sequence (P09429 1-215): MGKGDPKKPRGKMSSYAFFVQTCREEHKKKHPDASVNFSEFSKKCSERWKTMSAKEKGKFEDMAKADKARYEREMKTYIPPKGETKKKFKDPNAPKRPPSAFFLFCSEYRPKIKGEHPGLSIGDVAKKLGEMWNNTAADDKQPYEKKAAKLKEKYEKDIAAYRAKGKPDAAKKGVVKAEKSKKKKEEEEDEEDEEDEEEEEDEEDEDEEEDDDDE

[6] = biological target: T2, HMGB1 (primary rat cortical neurons); assay: CETSA in neuron lysate, Western blot; competition with cel-p pull-down; type: biochemical; conditions: 20 μM cel, 1 h, 37-82 °C (CETSA); 8 × cel in pull-down
[7] = biological target: T3, HMGB1 A box; assay: gel-based competition with IAA-yne labelling, click TAMRA fluorescence; type: binding; conditions: covalent; blocks IAA-yne labelling of Cys; PBS

| SMILES | in-gel fluorescence labelling by probe, click TAMRA azide [1] | probe pull-down, TMT LC-MS/MS and Western blot [2] | in-gel fluorescence labelling by probe, click TAMRA azide [3] | gel-based competition with IAA-yne labelling, click TAMRA fluorescence [4] | gel-based competition with IAA-yne labelling, click TAMRA fluorescence [5] | CETSA in neuron lysate, Western blot; competition with cel-p pull-down [6] | gel-based competition with IAA-yne labelling, click TAMRA fluorescence [7] |
| --- | --- | --- | --- | --- | --- | --- | --- |
| C#CCNC(=O)[C@]1(C)CC[C@]2(C)CC[C@]3(C)C4=CC=C5C(=CC(=O)C(O)=C5C)[C@]4(C)CC[C@@]3(C)[C@@H]2C1 [cel-p] | The binding of cel-p to the A and B boxes could not be blocked by IAA | could completely compete the binding of cel-p to HMGB1 | The binding of cel-p to the A and B boxes could not be blocked by IAA | – | – | – | – |
| CC1=C(O)C(=O)C=C2C1=CC=C1[C@@]2(C)CC[C@@]2(C)[C@@H]3C[C@](C)(C(=O)O)CC[C@]3(C)CC[C@]12C [cel, celastrol] | – | – | – | Cel also almost completely blocked the binding of IAA-yne to the Cys group | Cel almost completely competed for the binding of IAA-yne to HMGB1 or DTT reduced HMGB1 | The CETSA results also proved the direct binding of cel and HMGB1 | Cel also almost completely blocked the binding of IAA-yne to the Cys group |
